Type in all cases: cell-based
Test [1] addresses T1, Androgen receptor (Homo sapiens) (UniProt P10275).
T1 sequence (whole entry): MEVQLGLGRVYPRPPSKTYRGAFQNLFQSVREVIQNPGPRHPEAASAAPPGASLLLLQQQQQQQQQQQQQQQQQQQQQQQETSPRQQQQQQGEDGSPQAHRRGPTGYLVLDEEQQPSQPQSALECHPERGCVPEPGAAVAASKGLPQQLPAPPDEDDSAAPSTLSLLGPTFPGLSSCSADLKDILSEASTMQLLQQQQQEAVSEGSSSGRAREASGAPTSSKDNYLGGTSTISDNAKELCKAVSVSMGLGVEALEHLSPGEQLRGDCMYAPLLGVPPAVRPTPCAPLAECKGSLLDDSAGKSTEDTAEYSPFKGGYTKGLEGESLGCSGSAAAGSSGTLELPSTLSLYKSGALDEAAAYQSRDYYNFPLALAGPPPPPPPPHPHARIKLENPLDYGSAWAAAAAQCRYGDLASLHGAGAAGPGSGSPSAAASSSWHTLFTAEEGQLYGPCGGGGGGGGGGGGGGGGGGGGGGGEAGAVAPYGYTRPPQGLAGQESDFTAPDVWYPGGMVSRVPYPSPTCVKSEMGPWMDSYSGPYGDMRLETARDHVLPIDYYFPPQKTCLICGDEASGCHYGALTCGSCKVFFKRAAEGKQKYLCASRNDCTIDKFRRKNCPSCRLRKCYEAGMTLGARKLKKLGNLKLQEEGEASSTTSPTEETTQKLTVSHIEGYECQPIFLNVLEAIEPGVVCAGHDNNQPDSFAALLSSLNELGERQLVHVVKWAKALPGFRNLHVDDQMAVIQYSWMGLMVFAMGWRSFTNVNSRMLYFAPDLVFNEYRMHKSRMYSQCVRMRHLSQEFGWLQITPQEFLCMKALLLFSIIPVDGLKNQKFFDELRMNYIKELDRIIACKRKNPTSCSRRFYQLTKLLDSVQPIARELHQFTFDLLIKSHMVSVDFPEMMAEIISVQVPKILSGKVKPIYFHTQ
Put plainly: Binding affinity to Androgen receptor in human 22Rv1 cells assessed as thermal stabilization at 10 uM incubated for 24 hrs by CETSA analysis.

Test [2] relates to Androgen receptor (Homo sapiens), P10275 [UNDEFINED MUTATION]. Put plainly: Binding affinity to AR-V7 in human 22Rv1 cells assessed as thermal stabilization at 10 uM incubated for 24 hrs by CETSA analysis.
For test [3] the test system is unchanged. Put plainly: Binding affinity to AR-V7 in human 22Rv1 cells at 10 uM incubated for 24 hrs by SPR analysis.
Test [4] addresses T1, Androgen receptor (Homo sapiens). Put plainly: Binding affinity to Androgen receptor in human 22Rv1 cells at 10 uM incubated for 24 hrs by SPR analysis.

Each structure is given as a SMILES string. Calls of active or inactive are those of the source. The calls are words filed in the database; no cut-off is given here.

Regarding `CC(C)(c1ccc(O)cc1)c1ccc(OCc2cccc(N3CCOCC3)n2)cc1`, the result in test [1] and in test [2] was inactive. Besides, the outcome in test [3] and in test [4] was Active.

The values above are taken from ChEMBL document CHEMBL6153032, “Discovery of a highly potent, N-terminal domain-targeting degrader of AR-FL/AR-V7 for the treatment of prostate cancer” (Eur J Med Chem, 2025).
